Experimental data reported in patent US8716263B2, “Synthesis of purine nucleosides” (Gilead Pharmasset LLC, priority 2008, dated 2014).
Where two headings read alike, the source gives them in different places.

Tested on: HCV replicon RNA-containing Huh7 cells (clone A cells)
Assay: HCV replicon assay
Type: cell-based
Conditions: read-out: CloneA EC90
Procedure: HCV replicon assay. HCV replicon RNA-containing Huh7 cells (clone A cells; Apath, LLC, St. Louis, Mo.) were kept at exponential growth in Dulbecco's modified Eagle's medium (high glucose) containing 10% fetal bovine serum, 4 mM L-glutamine and 1 mM sodium pyruvate, 1×nonessential amino acids, and G418 (1,000 μg/m1). Antiviral assays were performed in the same medium without G418. Cells were seeded in a 96-well plate at 1,500 cells per well, and test compounds were added immediately after seeding. Incubation time 4 days. At the end of the incubation step, total cellular RNA was isolated (RNeasy 96 kit; Qiagen). Replicon RNA and an internal control (TaqMan rRNA control reagents; Applied Biosystems) were amplified in a single-step multiplex RT-PCR protocol as recommended by the manufacturer. The HCV primers and probe were designed with Primer Express software (Applied Biosystems) and covered highly conserved 5′-untranslated region (UTR) sequences (sense, 5′-AGCCATGGCGTTAGTA(T)GAGTGT-3′ (SEQ ID NO: 1), and antisense, 5′-TTCCGCAGACCACTATGG-3′ (SEQ ID NO: 2); probe, 5′-FAM-[…]-TAMRA-3′ SEQ ID NO: 3)).
To express the antiviral effectiveness of a compound, the threshold RT-PCR cycle of the test compound was subtracted from the average threshold RT-PCR cycle of the no-drug control (ΔCtHCV). A ΔCt of 3.3 equals a 1-log 10 reduction (equal to the 90% effective concentration [EC90]) in replicon RNA levels. The cytotoxicity of the test compound could also be expressed by calculating the ΔCtrRNA values. The ΔΔCt specificity parameter could then be introduced (ΔCtHCV−ΔCtrRNA) in which the levels of HCV RNA are normalized for the rRNA levels and calibrated against the no-drug control.

[1] = clone A Huh7 replicon cells, incubation time 4 days, replicon RNA by RT-PCR, ΔCt of 3.3 = 1-log 10 reduction = EC90

Structure (SMILES)	EC90 (Hepatitis C virus, Huh-7, 96 h)	EC90 [1]	other results
COc1nc(N)nc2c1ncn2[C@@H]1O[C@H](COP(=O)(N[C@@H](C)C(=O)OC(C)C)Oc2ccccc2)[C@@H](O)[C@@]1(C)F (stereo partly drawn) [Compound 11, (2S)-isopropyl 2-((((2R,3R,4R,5R)-5-(2-amino-6-methoxy-9H-purin-9-yl)-4-fluoro-3-hydroxy-4-methyltetrahydrofuran-2-yl)methoxy) (phenoxy)phosphorylamino)propanoate]	20 nM	–	–
COC(=O)[C@H](C)NP(=O)(OC[C@H]1O[C@@H](n2cnc3c(N4CCC4)nc(N)nc32)[C@](C)(F)[C@@H]1O)Oc1ccccc1 (stereo partly drawn) [Compound 12]	–	70 nM	–
C[C@H](NP(=O)(OC[C@H]1O[C@@H](n2cnc3c(O)nc(N)nc32)[C@](C)(F)[C@@H]1O)Oc1ccccc1)C(=O)OC1CCCC1 (stereo partly drawn) [Compound 14, (2S)-cyclopentyl 2-((((2R,3R,4R,5R)-5-(2-amino-6-hydroxy-9H-purin-9-yl)-4-fluoro-3-hydroxy-4-methyltetrahydrofuran-2-yl)methoxy)(phenoxy)phosphorylamino)propanoate]	130 nM	–	–
COP1(=O)OC[C@H]2O[C@@H](n3cnc4c(N5CCC5)nc(N)nc43)[C@](C)(F)[C@@H]2O1 (stereo partly drawn) [Compound 15, 6-Azetidin-1-yl-9-((4aR,6R,7R,7aR)-7-fluoro-2-methoxy-7-methyl-2-oxo-tetrahydrofuro[3,2-d][1,3,2]dioxaphosphinin-6-yl)-9H-purin-2-ylamine]	710 nM	–	–
COc1nc(N)nc2c1ncn2[C@@H]1O[C@@H]2CO[P@](=O)(OC3CCC3)O[C@H]2[C@@]1(C)F [Compound 23, 6-Methoxy-9-((2R,4aR,6R,7R,7aR)-7-fluoro-2-cyclobutoxy-7-methyl-2-oxo-tetrahydro-2λ^5-furo[3,2-d][1,3,2]dioxaphosphinin-6-yl)-9H-purin-2-ylamine]	–	–	EC90 (Hepatitis C virus, Huh-7, 96 h, clone A Huh7 replicon cells, incubation time 4 days, replicon RNA by RT-PCR, ΔCt of 3.3 = 1-log 10 reduction = EC90): 130 nM
COc1nc(N)nc2c1ncn2[C@@H]1O[C@@H]2CO[P@](=O)(OC3CCCC3)O[C@H]2[C@@]1(C)F [Compound 24, 6-Methoxy-9-((2R,4aR,6R,7R,7aR)-7-fluoro-2-cyclopentoxy-7-methyl-2-oxo-tetrahydro-2μ^5-furo[3,2-d][1,3,2]dioxaphosphinin-6-yl)-9H-purin-2-ylamine]	–	37 nM	–
